Data published in patent publication US8889699B2, “5-fluorouracil derivative” (Delta-Fly Pharma, Inc., priority 2009, dated 2014).
Like-named read-outs stand apart in the source and are kept apart here.

Biological target: T1, OPRT (Homo sapiens, UniProt P11172)
T1 construct: the obtained supernatant was used as a DPD enzyme solution or an OPRT enzyme solution; from tissue; 105,000 g supernatant of homogenate
T1 sequence (P11172 1-480): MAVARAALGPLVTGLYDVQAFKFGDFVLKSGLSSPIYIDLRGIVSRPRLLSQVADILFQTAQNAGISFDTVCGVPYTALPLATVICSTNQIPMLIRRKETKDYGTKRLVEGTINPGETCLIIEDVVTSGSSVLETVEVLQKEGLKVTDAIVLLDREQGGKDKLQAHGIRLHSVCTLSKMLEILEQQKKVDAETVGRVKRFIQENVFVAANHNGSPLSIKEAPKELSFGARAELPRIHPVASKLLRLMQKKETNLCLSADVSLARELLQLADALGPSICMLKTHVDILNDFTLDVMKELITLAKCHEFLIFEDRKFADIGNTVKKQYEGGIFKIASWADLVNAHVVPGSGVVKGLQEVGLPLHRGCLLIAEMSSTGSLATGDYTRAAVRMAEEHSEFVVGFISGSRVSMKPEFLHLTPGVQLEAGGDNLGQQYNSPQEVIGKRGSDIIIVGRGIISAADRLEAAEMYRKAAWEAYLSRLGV
Experiment: OPRT inhibitory action in vitro (enzyme reaction, tritium-labeled 5-FU as substrate)
Assay type: biochemical
Procedure: The resulting product was diluted to concentrations of 1 mM, 100 μM, 10 μM, and 1 μM with a 10 mM potassium phosphate buffer solution (pH 6.0), thereby obtaining Test Liquids 1. The obtained Test Liquids 1 were separately added to the enzyme reaction solution described below to give final concentrations of 200 μM, 20 μM, 2 μM, and 0.2 μM. • (b) Test liquid preparation (2): As a DPD inhibitor, 5-chloro-2,4-dihydroxypyridine (CDHP; gimeracil) was dissolved to a concentration of 10 mM in a 10 mM potassium phosphate buffer solution (pH 6.0). The resulting product was diluted to concentrations of 1 mM, 100 μM, 10 μM, and 1 μM, thereby obtaining Test Liquids 2. The obtained Test Liquids 2 were separately added to the enzyme reaction solution to give final concentrations of 200 μM, 20 μM, 2 μM, and 0.2 μM. • (c) Test liquid preparation (3): As an OPRT inhibitor, citrazinic acid (Citra. A.) was dissolved to a concentration of 10 mM in 20 mM trishydroxyaminomethane-hydrochloric buffer solution (pH 8.0). Thereafter, the resulting product was diluted to concentrations of 1 mM, 100 μM, and 10 μM with a 10 mM potassium phosphate buffer solution, thereby obtaining Test Liquids (3). The obtained Test Liquids 3 were separately added to the enzyme reaction solution to give final concentrations of 200 μM, 20 μM, and 2 μM. • (d) Preparation of enzyme solution: The liver of an 8-week old SD rat was used as a DPD enzyme source, while human tumor cells that had been transplanted into a nude mouse and proliferated therein were used as an OPRT enzyme source. Specifically, immediately after a rat liver or successively-transplanted human tumor cells were extracted, a 50-mM tris-hydrochloric acid buffer solution (pH 8.0) containing 0.25 M saccharose, 5 mM magnesium chloride, and 1 mM dithreitol was added thereto to a concentration of 25% (w/v) and homogenized. Thereafter, ultracentrifugation was performed at 105,000 g for 60 minutes, and the obtained supernatant was used as a DPD enzyme solution or an OPRT enzyme solution. • (e) Enzyme reaction: A DPD enzyme reaction was carried out in accordance with the method of Tatsumi et al. (Gann, 78: 748-755 (1987)) using 5-FU labeled with tritium as a substrate. An OPRT enzyme reaction was carried out in accordance with the method of Shirasaka et al. (Cancer Res., 53: 4004-4009 (1993)) using 5-FU labeled with tritium as a substrate. Then, the activity of a control group (with no test compound) and test compound groups was measured. The percent inhibition of the test compound relative to DPD or OPRT was calculated using the following formula: [1-(the enzyme activity with the test compound/the enzyme activity of the control group)]×100(%).
The resulting product was diluted to concentrations of 1 mM, 100 μM, 10 μM, and 1 μM with a 10 mM potassium phosphate buffer solution (pH 6.0), thereby obtaining Test Liquids 1. The obtained Test Liquids 1 were separately added to the enzyme reaction solution described below to give final concentrations of 200 μM, 20 μM, 2 μM, and 0.2 μM. • (b) Preparation of enzyme solution: The liver of an 8-week old SD rat was used as a DPD enzyme source, while human tumor cells that had been transplanted into a nude mouse and proliferated therein were used as an OPRT enzyme source. Specifically, immediately after a rat liver or successively-transplanted human tumor cells were extracted, a 50-mM tris-hydrochloric acid buffer solution (pH 8.0) containing 0.25 M saccharose, 5 mM magnesium chloride, and 1 mM dithreitol was added thereto to a concentration of 25% (w/v) and homogenized. Thereafter, ultracentrifugation was performed at 105,000 g for 60 minutes, and the obtained supernatant was used as a DPD enzyme solution or an OPRT enzyme solution. • (c) Enzyme reaction: A DPD enzyme reaction was carried out in accordance with the method of Tatsumi et al. (Gann, 78: 748-755 (1987)) using 5-FU labeled with tritium as a substrate. […]

[1] = 0.2 μM, Table 2, read-out: OPRT Inhibition (%)
[2] = 2 μM, Table 2, read-out: OPRT Inhibition (%)
[3] = Conc. 0.2 μM, Table 1, read-out: OPRT Inhibitory Activity: Inhibition
[4] = Conc. 2 μM, Table 1, read-out: OPRT Inhibitory Activity: Inhibition

Row | SMILES | inhibition at 0.2 µM [1] | inhibition at 2 µM [2] | OPRT Inhibitory Activity: Activity (Conc. 0.2 μM, Table 1) | inhibition at 0.2 µM [3] | OPRT Inhibitory Activity: Activity (Conc. 2 μM, Table 1) | inhibition at 2 µM [4] | OPRT Inhibitory Activity: Activity (Conc. 20 μM, Table 1) | inhibition at 20 µM (Conc. 20 μM, Table 1) | OPRT Inhibitory Activity: Activity (Conc. 200 μM, Table 1) | inhibition at 200 µM (Conc. 200 μM, Table 1) | further results
1 | O=C(O)c1cc(O)nc(O)c1 [Citra. A., citrazinic acid, reference compound] | 31.9% | 75.1% | 0.379 nmol/mL/min | 0% | 0.301 nmol/mL/min | 20% | 0.173 nmol/mL/min | 54% | 0.075 nmol/mL/min | 80% | 
2 | CCOCn1cc(F)c(=O)n(C(=O)c2cccc(C(=O)Oc3cc(OC(=O)c4cc(O)nc(O)c4)c(Cl)cn3)c2)c1=O [Compound I-2, 3-{3-[4-(2,6-dihydroxyisonicotinoyloxy)-5-chloro-2-pyridyloxycarbonyl]benzoyl}-1-ethoxymethyl-5-fluorouracil] |  |  | 0.375 nmol/mL/min | 0% | 0.280 nmol/mL/min | 25.5% | 0.168 nmol/mL/min | 55.3% | 0.069 nmol/mL/min | 81.6% | 
3 | CCOCn1cc(F)c(=O)n(C(=O)c2cccc(C(=O)Oc3cc(OC(=O)c4cc(OC(=O)C5CCCC5)nc(OC(=O)C5CCCC5)c4)c(Cl)cn3)c2)c1=O [Compound I-9, 3-{3-[4-(2,6-dicyclopentanecarbonyloxyisonicotinoyloxy)-5-chloro-2-pyridyloxycarbonyl]benzoyl}-1-ethoxymethyl-5-fluorouracil] | 41.2% | 75.9% |  |  |  |  |  |  |  |  | 
4 | CCOCn1cc(F)c(=O)n(C(=O)c2cccc(C(=O)Oc3cc(OC(=O)c4cc(OC(C)=O)nc(OC(C)=O)c4)c(Cl)cn3)c2)c1=O [Compound I-10, 3-{3-[4-(2,6-diacetyloxyisonicotinoyloxy)-5-chloro-2-pyridyloxycarbonyl]benzoyl}-1-ethoxymethyl-5-fluorouracil] | 27.8% | 76.4% |  |  |  |  |  |  |  |  | 
5 | CCOCn1cc(F)c(=O)n(C(=O)c2cccc(C(=O)Oc3cc(OC(=O)c4cc(OC(=O)CC)nc(OC(=O)CC)c4)c(Cl)cn3)c2)c1=O [Compound I-11, 3-{3-[4-(2,6-dipropionyloxyisonicotinoyloxy)-5-chloro-2-pyridyloxycarbonyl]benzoyl}-1-ethoxymethyl-5-fluorouracil] |  |  |  |  |  |  |  |  |  |  | IC50 (5-FU as substrate, Test Example 4, read-out: IC50 of OPRT activity inhibition): ~15 µM; OPRT Inhibitory Activity: Activity (Conc. 0.2 μM, Table 5): 0.101 nmol/mL/min; inhibition at 0.2 µM (Conc. 0.2 μM, Table 5, read-out: OPRT Inhibitory Activity: Inhibition): 42.6%; OPRT Inhibitory Activity: Activity (Conc. 2 μM, Table 5): 0.098 nmol/mL/min; inhibition at 2 µM (Conc. 2 μM, Table 5, read-out: OPRT Inhibitory Activity: Inhibition): 73.4%; OPRT Inhibitory Activity: Activity (Conc. 20 μM, Table 5): 0.046 nmol/mL/min; inhibition at 20 µM (Conc. 20 μM, Table 5): 87.5%
